Data set [1] has as its system MV4-11. Kind of data set: Antiproliferative activity against human MV4-11 cells harboring MLL-AF4 assessed as cell growth inhibition measured for 72 hrs by MTT assay. The class given is functional, cell-based. Conditions: MV4-11, 72 h. On the technique in general: Formazan colour is commonly taken as a measure of viable cells.
A further data set relates to HL-60. Kind of data set: Antiproliferative activity against human […] assessed as cell growth inhibition measured for 72 hrs by MTT assay. The class given is functional, cell-based. To be noted: HL-60, 72 h.
In data set [2] the target is Menin/Histone-lysine N-methyltransferase MLL (Homo sapiens, UniProt O00255). The data set can be described thus: Inhibition of Menin/fluorescein labeled MLL(4 to 43 residues) (unknown origin) protein protein interaction incubated for 1 hr by fluorescence polarization-based competitive binding assay. For orientation: Fluorescence polarisation rises when a labelled molecule tumbles more slowly, as on binding a larger partner.

For data set [3], the system named is MV4-11. Kind of data set: Antiproliferative activity against human MV4-11 cells assessed as reduction in cell viability measured for 3 days by cell counting assay. The class given is functional, cell-based. Conditions: MV4-11, 72 h.
The subject of data set [4] is MV4-11. Kind of data set: Induction of cell differentiation in human MV4-11 cells assessed as increase in CD11b expression at 10 uM measured after 7 days by flow cytometric analysis. Conditions: time 7.0 day. The class given is functional, cell-based. (In flow cytometry, cells or beads pass a laser one at a time.)
The test system of data set [5] is MV4-11. Kind of data set: Antiproliferative activity against human MV4-11 cells assessed as reduction in cell viability measured for 3 days followed by replacement with fresh medium of compound and measured after 72 hrs by cell counting assay. The class given is functional, cell-based. To be noted: MV4-11, 72 h.
Data set [6] relates to MV4-11. Kind of data set: Reversible differentiation arrest in human MV4-11 cells at 0.1 to 10 uM measured after 7 days by flow cytometric analysis. The class given is functional, cell-based. To be noted: dose 0.1-10 µM, time 7.0 day.
Data set [7] has as its system MV4-11. Kind of data set: Induction of apoptosis in human MV4-11 cells incubated for 24 hrs by annexinV/PI staining based flow cytometry analysis. To be noted: dose 0.1-10 µM, DDE = dose-dependent effect. The class given is functional, cell-based.
The nature of data set [8]: Solubility of compound in phosphate buffer at pH 7.4 by spectrophotometric analysis. Type of data set: physicochemical.

Each structure is given as a SMILES string. pIC50: −log10 of the molar value. Converted amounts (≈) assume the structure as drawn. The source made the active and inactive calls. The calls are words filed in the database; no cut-off is given here. Bounds are passed on as bounds.

Chain of Menin/Histone-lysine N-methyltransferase MLL (O00255 whole entry, the tested form may be a part): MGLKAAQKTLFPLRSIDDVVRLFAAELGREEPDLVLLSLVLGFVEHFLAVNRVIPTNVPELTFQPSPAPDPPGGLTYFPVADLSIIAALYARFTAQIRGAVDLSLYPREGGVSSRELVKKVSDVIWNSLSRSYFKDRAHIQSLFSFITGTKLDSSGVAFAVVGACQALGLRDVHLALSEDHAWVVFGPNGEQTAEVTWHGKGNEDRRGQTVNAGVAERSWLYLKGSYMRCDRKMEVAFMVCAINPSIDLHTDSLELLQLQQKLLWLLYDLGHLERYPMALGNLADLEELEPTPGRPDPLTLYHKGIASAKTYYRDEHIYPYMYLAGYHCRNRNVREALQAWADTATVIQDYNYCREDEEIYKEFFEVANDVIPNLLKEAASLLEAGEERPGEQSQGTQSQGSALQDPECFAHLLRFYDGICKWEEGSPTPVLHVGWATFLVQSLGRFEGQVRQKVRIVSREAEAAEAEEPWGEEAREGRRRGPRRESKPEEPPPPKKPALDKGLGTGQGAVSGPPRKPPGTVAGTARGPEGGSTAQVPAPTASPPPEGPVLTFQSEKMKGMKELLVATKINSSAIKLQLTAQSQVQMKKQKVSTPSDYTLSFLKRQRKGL
Chain of Menin/Histone-lysine N-methyltransferase MLL (Q03164 1-2718 partner limits assumed): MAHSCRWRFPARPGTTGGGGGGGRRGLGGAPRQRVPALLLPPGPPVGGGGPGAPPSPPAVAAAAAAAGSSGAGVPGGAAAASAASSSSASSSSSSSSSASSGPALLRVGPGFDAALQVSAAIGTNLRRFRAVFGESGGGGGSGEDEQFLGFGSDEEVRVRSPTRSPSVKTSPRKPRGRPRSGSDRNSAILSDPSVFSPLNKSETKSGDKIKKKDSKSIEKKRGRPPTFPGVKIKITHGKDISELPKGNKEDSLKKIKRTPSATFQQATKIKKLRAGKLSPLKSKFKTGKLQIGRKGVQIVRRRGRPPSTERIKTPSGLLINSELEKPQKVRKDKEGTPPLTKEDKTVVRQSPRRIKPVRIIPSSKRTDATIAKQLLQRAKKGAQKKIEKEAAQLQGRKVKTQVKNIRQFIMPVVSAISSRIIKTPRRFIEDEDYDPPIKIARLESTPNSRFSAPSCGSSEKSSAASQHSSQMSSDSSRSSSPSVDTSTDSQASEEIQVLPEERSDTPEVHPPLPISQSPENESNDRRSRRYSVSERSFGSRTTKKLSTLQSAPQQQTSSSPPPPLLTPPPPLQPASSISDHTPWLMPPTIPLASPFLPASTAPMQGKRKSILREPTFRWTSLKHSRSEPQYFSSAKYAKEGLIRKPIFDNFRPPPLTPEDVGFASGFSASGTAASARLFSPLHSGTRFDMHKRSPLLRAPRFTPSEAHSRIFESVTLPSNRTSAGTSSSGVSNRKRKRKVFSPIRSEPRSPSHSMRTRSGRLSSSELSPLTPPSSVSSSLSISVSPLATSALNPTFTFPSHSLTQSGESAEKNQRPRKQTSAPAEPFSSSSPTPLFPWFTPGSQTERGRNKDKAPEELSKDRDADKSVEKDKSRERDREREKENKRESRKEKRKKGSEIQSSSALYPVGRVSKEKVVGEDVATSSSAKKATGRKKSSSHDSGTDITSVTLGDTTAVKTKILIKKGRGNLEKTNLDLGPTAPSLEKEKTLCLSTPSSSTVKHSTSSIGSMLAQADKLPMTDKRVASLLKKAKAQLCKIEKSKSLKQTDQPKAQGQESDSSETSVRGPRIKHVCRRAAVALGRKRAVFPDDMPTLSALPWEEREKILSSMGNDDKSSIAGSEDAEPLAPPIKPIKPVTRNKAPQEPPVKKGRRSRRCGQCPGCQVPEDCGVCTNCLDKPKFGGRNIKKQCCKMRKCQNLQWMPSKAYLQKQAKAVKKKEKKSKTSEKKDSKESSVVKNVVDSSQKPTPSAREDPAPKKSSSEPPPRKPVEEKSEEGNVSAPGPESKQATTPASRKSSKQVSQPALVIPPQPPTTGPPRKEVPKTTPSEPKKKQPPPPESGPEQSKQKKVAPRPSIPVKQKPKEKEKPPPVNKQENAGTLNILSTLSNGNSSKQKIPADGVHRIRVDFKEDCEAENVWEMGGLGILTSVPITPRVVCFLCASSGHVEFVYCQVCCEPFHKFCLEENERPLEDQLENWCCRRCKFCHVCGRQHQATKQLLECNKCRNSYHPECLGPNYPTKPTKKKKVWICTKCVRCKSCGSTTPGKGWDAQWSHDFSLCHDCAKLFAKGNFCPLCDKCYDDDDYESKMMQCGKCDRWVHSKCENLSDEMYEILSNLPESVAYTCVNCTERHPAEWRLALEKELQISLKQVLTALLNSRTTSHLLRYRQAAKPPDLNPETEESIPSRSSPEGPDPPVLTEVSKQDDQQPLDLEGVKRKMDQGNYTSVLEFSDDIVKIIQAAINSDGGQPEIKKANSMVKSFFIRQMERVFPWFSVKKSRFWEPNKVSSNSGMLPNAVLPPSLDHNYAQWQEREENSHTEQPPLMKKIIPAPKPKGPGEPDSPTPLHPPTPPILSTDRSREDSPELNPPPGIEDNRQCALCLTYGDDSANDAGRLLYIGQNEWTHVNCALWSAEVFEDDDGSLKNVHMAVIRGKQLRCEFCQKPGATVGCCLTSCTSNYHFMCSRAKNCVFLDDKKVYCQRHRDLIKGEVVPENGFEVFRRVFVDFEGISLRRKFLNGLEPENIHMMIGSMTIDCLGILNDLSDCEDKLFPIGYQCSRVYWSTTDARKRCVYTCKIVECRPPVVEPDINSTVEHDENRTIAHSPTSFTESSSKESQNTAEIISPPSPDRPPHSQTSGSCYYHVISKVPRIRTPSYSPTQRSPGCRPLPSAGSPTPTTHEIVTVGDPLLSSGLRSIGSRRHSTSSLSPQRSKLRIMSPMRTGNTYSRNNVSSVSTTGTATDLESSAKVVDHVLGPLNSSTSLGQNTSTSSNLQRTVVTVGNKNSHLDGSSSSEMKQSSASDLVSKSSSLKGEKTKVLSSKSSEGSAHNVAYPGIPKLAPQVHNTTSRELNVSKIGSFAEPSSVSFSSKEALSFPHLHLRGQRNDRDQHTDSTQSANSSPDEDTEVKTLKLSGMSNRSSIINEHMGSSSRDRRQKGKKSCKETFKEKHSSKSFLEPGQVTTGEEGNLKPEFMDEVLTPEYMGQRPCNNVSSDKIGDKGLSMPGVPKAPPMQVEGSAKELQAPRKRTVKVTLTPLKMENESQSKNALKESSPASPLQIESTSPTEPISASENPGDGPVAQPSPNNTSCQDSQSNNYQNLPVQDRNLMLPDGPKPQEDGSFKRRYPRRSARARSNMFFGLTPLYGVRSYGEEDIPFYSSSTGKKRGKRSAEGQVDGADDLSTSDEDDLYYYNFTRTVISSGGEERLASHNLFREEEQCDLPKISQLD
Chain of Menin/Histone-lysine N-methyltransferase MLL (Q03164 2719-3969 partner limits assumed): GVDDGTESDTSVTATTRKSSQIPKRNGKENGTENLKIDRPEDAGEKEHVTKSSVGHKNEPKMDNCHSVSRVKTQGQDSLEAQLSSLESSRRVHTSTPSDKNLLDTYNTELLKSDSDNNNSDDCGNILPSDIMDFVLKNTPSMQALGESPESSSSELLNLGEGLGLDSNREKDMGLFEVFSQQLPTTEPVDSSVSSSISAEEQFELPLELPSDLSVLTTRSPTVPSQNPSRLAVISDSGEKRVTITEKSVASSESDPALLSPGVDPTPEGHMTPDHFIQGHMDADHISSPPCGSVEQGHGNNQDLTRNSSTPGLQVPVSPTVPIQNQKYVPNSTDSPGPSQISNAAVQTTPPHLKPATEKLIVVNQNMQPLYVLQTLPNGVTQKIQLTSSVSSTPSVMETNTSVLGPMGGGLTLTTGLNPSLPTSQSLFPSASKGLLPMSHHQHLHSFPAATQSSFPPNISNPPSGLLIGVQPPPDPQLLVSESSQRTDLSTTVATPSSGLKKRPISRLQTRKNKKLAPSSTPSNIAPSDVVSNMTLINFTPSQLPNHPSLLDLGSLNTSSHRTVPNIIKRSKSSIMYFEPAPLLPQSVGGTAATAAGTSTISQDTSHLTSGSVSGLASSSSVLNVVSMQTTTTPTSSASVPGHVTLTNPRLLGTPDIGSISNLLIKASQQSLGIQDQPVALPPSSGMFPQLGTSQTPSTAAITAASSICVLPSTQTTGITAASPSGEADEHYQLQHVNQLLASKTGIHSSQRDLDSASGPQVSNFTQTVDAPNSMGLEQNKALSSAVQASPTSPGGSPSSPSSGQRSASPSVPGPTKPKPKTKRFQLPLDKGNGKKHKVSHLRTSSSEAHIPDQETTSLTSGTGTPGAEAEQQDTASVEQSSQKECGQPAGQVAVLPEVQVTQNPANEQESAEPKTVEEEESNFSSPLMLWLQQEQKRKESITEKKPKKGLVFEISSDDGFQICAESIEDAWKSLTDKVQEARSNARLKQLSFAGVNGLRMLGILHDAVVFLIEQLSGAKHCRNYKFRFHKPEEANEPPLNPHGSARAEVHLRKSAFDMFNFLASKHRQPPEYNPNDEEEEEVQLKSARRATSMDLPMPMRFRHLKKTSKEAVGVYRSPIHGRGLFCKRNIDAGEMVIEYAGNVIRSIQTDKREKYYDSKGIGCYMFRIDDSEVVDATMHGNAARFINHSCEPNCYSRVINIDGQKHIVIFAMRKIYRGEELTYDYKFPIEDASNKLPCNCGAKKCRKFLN

By pIC50 is commonly meant −log10 of the IC50, conventionally taken in molar units. `COC(CNc1ccc2ncnc(NC3CCN(CC4CN(c5ccc(C#N)cc5)C4)CC3)c2n1)OC`: the pIC50 (with MV4-11 [1]; in the data set on HL-60; in [2]) was below 5.00 each time.
For the molecule `N#Cc1ccc(N2CC(CN3CCC(Nc4ncnc5cnc(N6CCOCC6)cc45)CC3)C2)cc1`, the pIC50 (in the data set with MV4-11 [1]; in the data set with HL-60; in data set [2]) was below 5.00 in each case.
As for `CCNCCNc1ccc2ncnc(NC3CCN(CC4CN(c5ccc(C#N)cc5)C4)CC3)c2n1`, the negative-log IC50 (pIC50) (in the data set with MV4-11 [1]; in the data set with HL-60; in data set [2]) was below 5.00 each time.
Consider `CCCc1cc2c(N3CCN(C4=NCC(C)(C)S4)CC3)ncnc2s1`, for which the pIC50 with MV4-11 [1] was 5.04; in the data set on MV4-11 [3], 5.07; in the data set with MV4-11 [5], 5.12; in the data set with HL-60 it was below 5.00. Moreover, the result in the data set with MV4-11 [4] and with MV4-11 [6] was Active. Besides, in the data set with MV4-11 [7], the Activity entry was “Dde”.
Consider `N#Cc1ccc(N2CC(CN3CCC(Nc4ncnc5cnc(N6CCCC6)cc45)CC3)C2)cc1`, for which the pIC50 is 5.19 in the data set on MV4-11 [1], below 5.00 in the data set with HL-60 and below 5.00 in data set [2].
In the case of `N#Cc1ccc(N2CC(CN3CCC(Nc4ncnc5ccc(CC(F)(F)F)cc45)CC3)C2)cc1`, the pIC50 (in the data set on MV4-11 [1]; with HL-60; in data set [2]) was below 5.00 each time.
As to `CN(C)CCN(C)c1ccc2ncnc(NC3CCN(CC4CN(c5ccc(C#N)cc5)C4)CC3)c2n1`, the pIC50 with MV4-11 [1] was 5.49; in the data set with HL-60, below 5.00; in data set [2], 6.59.
On to `N#Cc1ccc(N2CC(CN3CCC(Nc4ncnc5cnc(NC6CC6)cc45)CC3)C2)cc1`, for which the pIC50 (with MV4-11 [1]; in the data set with HL-60; in data set [2]) was below 5.00 each time.
As to `N#Cc1ccc(N2CC(CN3CCC(Nc4ncnc5ccc(Br)cc45)CC3)C2)cc1`, the pIC50 (in the data set on MV4-11 [1]; with HL-60; in data set [2]) was below 5.00 in each case.
On to `CCN(CC)CCNc1ccc2ncnc(NC3CCN(CC4CN(c5ccc(C#N)cc5)C4)CC3)c2n1`, for which the results for the negative logarithm of the IC50 (pIC50) (in the data set on MV4-11 [1]; in the data set on HL-60; in data set [2]) were 5.38, 5.02 and 6.09, respectively.
The solubility is the dissolved amount per volume that the medium holds. For the molecule `CC(C)(C)OC(=O)N1CC(S(=O)(=O)c2ccc(N3CC(CN4CCC(Nc5ncnc6ccc(Cl)nc56)CC4)C3)cc2)C1`, the pIC50 was 5.64 in the data set with MV4-11 [1], below 5.00 in the data set with HL-60 and 6.92 in data set [2]. In [8], this molecule yielded a solubility below 0.6 µg/mL.
For the molecule `N#Cc1ccc(N2CC(CN3CCC(Nc4ncnc5ccc(NCCN)nc45)CC3)C2)cc1`, the pIC50 in the data set with MV4-11 [1] was 5.01; with HL-60 it was below 5.00; in data set [2], 6.17.
Regarding `N#Cc1ccc(N2CC(CN3CCC(Nc4ncnc5ccc(Cl)nc45)CC3)C2)cc1`, the negative logarithm of the IC50 (pIC50) (in the data set with MV4-11 [1]; in the data set with HL-60; in data set [2]) was below 5.00 each time. This molecule also registered a solubility in data set [8] below 0.4 µg/mL.
On to `N#Cc1ccc(N2CC(CN3CCC(Nc4ncnc5cnc(OCC(F)(F)F)cc45)CC3)C2)cc1`, for which the negative logarithm of the IC50 (pIC50) is below 5.00 in the data set on MV4-11 [1], below 5.00 in the data set on HL-60 and 6.16 in data set [2].
As to `CN(C)CCN(C)C1CCN(c2cc3c(NC4CCN(CC5CN(c6ccc(C#N)cc6)C5)CC4)ncnc3cn2)CC1`, the pIC50 in the data set with MV4-11 [1] was 5.46; with HL-60, below 5.00; in data set [2] it was 6.54.
On the same counts, the results for `N#Cc1ccc(N2CC(CN3CCC(Nc4ncnc5cnc(N6CCCCC6)cc45)CC3)C2)cc1` are below 5.00, below 5.00 and 6.23.
Take `O=S(=O)(c1ccc(N2CC(CN3CCC(Nc4ncnc5ccc(Cl)nc45)CC3)C2)cc1)C1CC1`: the pIC50 is 5.18 with MV4-11 [1], below 5.00 in the data set with HL-60 and 7.05 in [2]. For the same molecule, the solubility in [8] was 15.9 µg/mL (≈ 31 µM).
Consider `CN(C)CCOc1ccc2ncnc(NC3CCN(CC4CN(c5ccc(C#N)cc5)C4)CC3)c2n1`, for which the negative logarithm of the IC50 (pIC50) in the data set with MV4-11 [1] is 5.82; with HL-60, below 5.00; in data set [2] it was 7.22. For the same molecule, in [8], the solubility was 314 µg/mL (≈ 645 µM).
With `CN(C)CCNc1ccc2ncnc(NC3CCN(CC4CN(c5ccc(C#N)cc5)C4)CC3)c2n1`, the negative-log IC50 (pIC50) was 5.36 with MV4-11 [1], below 5.00 in the data set on HL-60 and 6.01 in data set [2].
For the molecule `CN1CCN(c2ccc3ncnc(NC4CCN(CC5CN(c6ccc(C#N)cc6)C5)CC4)c3n2)CC1`, the values for the pIC50 (in the data set on MV4-11 [1]; in the data set on HL-60; in data set [2]) were 5.25, 5.00 and 7.15, respectively.
Take `O=S(=O)(c1ccncc1)c1ccc(N2CC(CN3CCC(Nc4ncnc5ccc(Cl)nc45)CC3)C2)cc1`: the pIC50 in the data set on MV4-11 [1] was 5.70; in the data set on HL-60 it was 5.06; in data set [2] it was 7.52. Further, the concentration in solution in data set [8] (solubility) came to 10 µg/mL (≈ 18.2 µM).
`N#Cc1ccc(N2CC(CN3CCC(Nc4ncnc5cnc(NCC6CC6)cc45)CC3)C2)cc1`: the pIC50 (in the data set with MV4-11 [1]; with HL-60; in data set [2]) was below 5.00 each time.
`O=S(=O)(c1ccc(N2CC(CN3CCC(Nc4ncnc5ccc(Cl)nc45)CC3)C2)cc1)c1ccccn1`: the pIC50 in the data set on MV4-11 [1] is 5.60; with HL-60, below 5.00; in [2] it was 7.22.
On the same counts, the results for `N#Cc1ccc(N2CC(CN3CCC(Nc4ncnc5ccc(N6CCNCC6)nc45)CC3)C2)cc1` are 5.66, below 5.00 and 6.74.
In the case of `CN(C)CCOc1ccc2ncnc(NC3CCN(CC4CN(c5ccc(S(=O)(=O)c6ccncc6)cc5)C4)CC3)c2n1`, the negative logarithm of the IC50 (pIC50) is 5.82 in the data set on MV4-11 [1], below 5.00 with HL-60 and 8.00 in data set [2]. In [8], this molecule came in with a solubility of 153 µg/mL (≈ 254 µM).
As to `O=S(=O)(c1ccncc1)c1ccc(N2CC(CN3CCC(Nc4ncnc5cnc(Cl)cc45)CC3)C2)cc1`, the pIC50 is 5.05 with MV4-11 [1], below 5.00 in the data set with HL-60 and below 5.00 in data set [2].
Turning to `CN(C)CCOc1ccc2ncnc(NC3CCN(CC4CN(c5ccc(S(=O)(=O)C6CN(C(=O)OC(C)(C)C)C6)cc5)C4)CC3)c2n1`, the values for the pIC50 (in the data set with MV4-11 [1]; in the data set on HL-60; in data set [2]) were 5.70, below 5.00 and 6.72, respectively. In addition, the concentration in solution in data set [8] (solubility) came to 69.5 µg/mL (≈ 102 µM).
With `N#Cc1ccc(N2CC(CN3CCC(Nc4ncnc5cnc(Cl)cc45)CC3)C2)cc1`, the negative-log IC50 (pIC50) (in the data set on MV4-11 [1]; with HL-60; in [2]) was below 5.00 in each case.
For `CC(C)(C)OC(=O)N1CC(S(=O)(=O)c2ccc(N3CC(CN4CCC(Nc5ncnc6cnc(Cl)cc56)CC4)C3)cc2)C1`, the pIC50 (in the data set with MV4-11 [1]; with HL-60; in [2]) was below 5.00 throughout.
Regarding `CN1CCN(c2cc3c(NC4CCN(CC5CN(c6ccc(C#N)cc6)C5)CC4)ncnc3cn2)CC1`, the pIC50 in the data set with MV4-11 [1] was 5.17; in the data set with HL-60 it was below 5.00; in data set [2] it was below 5.00.
For `N#Cc1ccc(N2CC(CN3CCC(Nc4ncnc5cnc(NC6CCCC6)cc45)CC3)C2)cc1`, the results for the negative logarithm of the IC50 (pIC50) (with MV4-11 [1]; in the data set with HL-60; in [2]) were below 5.00, below 5.00 and 7.22, respectively.
As for `CN(C)C1CCN(c2cc3c(NC4CCN(CC5CN(c6ccc(C#N)cc6)C5)CC4)ncnc3cn2)CC1`, the pIC50 with MV4-11 [1] was 5.52; in the data set with HL-60, below 5.00; in data set [2] it was below 5.00.
`CC(C)Nc1cc2c(NC3CCN(CC4CN(c5ccc(C#N)cc5)C4)CC3)ncnc2cn1`: the negative logarithm of the IC50 (pIC50) is below 5.00 in the data set on MV4-11 [1], below 5.00 with HL-60 and 6.28 in data set [2].
Turning to `N#Cc1ccc(N2CC(CN3CCC(Nc4ncnc5ccc(OCC(F)(F)F)nc45)CC3)C2)cc1`, the pIC50 in the data set on MV4-11 [1] was 5.25; in the data set with HL-60 it was below 5.00; in data set [2] it was below 5.00.
On to `N#Cc1ccc(N2CC(CN3CCC(Nc4ncnc5ccc(NCCO)nc45)CC3)C2)cc1`, for which the negative logarithm of the IC50 (pIC50) (in the data set on MV4-11 [1]; with HL-60; in data set [2]) was below 5.00 in each case.
In the case of `CN(C)C1CCN(c2ccc3ncnc(NC4CCN(CC5CN(c6ccc(C#N)cc6)C5)CC4)c3n2)CC1`, the negative logarithm of the IC50 (pIC50) in the data set with MV4-11 [1] is 5.01; in the data set with HL-60, 4.99; in data set [2], 6.89.
Regarding `CC(C)CNc1cc2c(NC3CCN(CC4CN(c5ccc(C#N)cc5)C4)CC3)ncnc2cn1`, the negative-log IC50 (pIC50) with MV4-11 [1] is below 5.00; with HL-60, below 5.00; in [2], 5.71.
